# Experimental data from patent US4339535A, “Process for preparing antibiotic EM 4940” (E. R. Squibb & Sons, Inc., priority 1980, dated 1982).
# Columns and labels:
# Salmonella typhimurium = assay: MIC aerobic screen, BA-2 agar; details: Table II, additional tests; strain 9201
# Staphylococcus aureus = assay: MIC aerobic screen, BA-2 agar; details: Table II, additional tests
# Escherichia coli = assay: MIC aerobic screen, BA-2 agar; details: Table II, additional tests
# Serratia marcescens = assay: MIC aerobic screen, BA-2 agar; details: Table II, additional tests
# Shigella sonnei = assay: MIC aerobic screen, BA-2 agar; type: cell-based; details: Table II, additional tests; strain 8449
# Proteus morganii = assay: MIC aerobic screen, BA-2 agar; details: Table II, additional tests; strain 9774
# [1] = system: Acinetobacter calcoaceticus; assay: MIC aerobic screen, BA-2 agar; details: Table II, additional tests; strain 8333
# Pseudomonas aeruginosa = assay: MIC aerobic screen, BA-2 agar; details: Table II, additional tests
# Klebsiella aerogenes = assay: MIC aerobic screen, BA-2 agar; details: Table II, additional tests; strain 10,436
# Proteus rettgeri = assay: MIC aerobic screen, BA-2 agar; details: Table II, additional tests; strain 8217
# Klebsiella pneumoniae = assay: MIC aerobic screen, BA-2 agar; details: Table II, additional tests; strain 11,066
# solubility = type: physicochemical; details: acetonitrile
# Streptococcus faecalis = assay: MIC aerobic screen, BA-2 agar; details: Table II, additional tests; strain 9011
# Enterobacter cloacae = assay: MIC aerobic screen, BA-2 agar; details: Table II, additional tests; strain 10,459
smiles,measurement,setting,value
"CC1(O)CC(C(N)=O)N=C1c1ncccc1O (stereo not drawn) [EM4940B, 2,4-cis-3,4-dihydro-4-hydroxy-5-(3-hydroxy-2-pyridinyl)-4-methyl-2H-pyrrole-2-carboxamide]",Minimum Inhibitory Concentration,Salmonella typhimurium,50 µg/mL
same,Minimum Inhibitory Concentration,Staphylococcus aureus; strain 2400,> 200 µg/mL
same,Minimum Inhibitory Concentration,Staphylococcus aureus; strain 2661,> 200 µg/mL
same,Minimum Inhibitory Concentration,"Staphylococcus aureus; strain 10,165",100 µg/mL
same,Minimum Inhibitory Concentration,"Staphylococcus aureus; strain 11,239",100 µg/mL
same,Minimum Inhibitory Concentration,"Escherichia coli; strain 10,404",50 µg/mL
same,Minimum Inhibitory Concentration,"Escherichia coli; strain 10,857",50 µg/mL
same,Minimum Inhibitory Concentration,Serratia marcescens; strain 9782,50 µg/mL
same,Minimum Inhibitory Concentration,"Serratia marcescens; strain 11,111",100 µg/mL
same,Minimum Inhibitory Concentration,Shigella sonnei,50 µg/mL
same,Minimum Inhibitory Concentration,Proteus morganii,100 µg/mL
same,Minimum Inhibitory Concentration,[1],100 µg/mL
same,Minimum Inhibitory Concentration,Pseudomonas aeruginosa; strain 8754,100 µg/mL
same,Minimum Inhibitory Concentration,Pseudomonas aeruginosa; strain 9330,> 200 µg/mL
same,Minimum Inhibitory Concentration,Pseudomonas aeruginosa; strain 9545,12.5 µg/mL
same,Minimum Inhibitory Concentration,Klebsiella aerogenes,50 µg/mL
same,Minimum Inhibitory Concentration,Proteus rettgeri,50 µg/mL
same,Minimum Inhibitory Concentration,Klebsiella pneumoniae,50 µg/mL
same,solubility of B form relative to A form,solubility,more soluble
same,Minimum Inhibitory Concentration,Streptococcus faecalis,> 200 µg/mL
same,Minimum Inhibitory Concentration,Enterobacter cloacae,100 µg/mL
